# In ChEMBL document CHEMBL5030516, “Fighting Shigella by Blocking Its Disease-Causing Toxin” (J Med Chem, 2021):
# Assay: Inhibition of C-terminal 6XHis-tagged Shigella dysenteriae Stx1b (21 to 89 residues) expressed in Escherichia coli BL21 for 1 hr by ELISA assay
row,SMILES,IC50 [µM]
1,O=C(O)c1cc(OCCNC(=O)c2cc(OCc3cn([C@@H]4O[C@H](CO)[C@H](O[C@H]5O[C@H](CO)[C@H](O)[C@H](O)[C@H]5O)[C@H](O)[C@H]4O)nn3)cc(OCc3cn([C@@H]4O[C@H](CO)[C@H](O[C@H]5O[C@H](CO)[C@H](O)[C@H](O)[C@H]5O)[C@H](O)[C@H]4O)nn3)c2)cc(OCCNC(=O)c2cc(OCc3cn([C@@H]4O[C@H](CO)[C@H](O[C@H]5O[C@H](CO)[C@H](O)[C@H](O)[C@H]5O)[C@H](O)[C@H]4O)nn3)cc(OCc3cn([C@@H]4O[C@H](CO)[C@H](O[C@H]5O[C@H](CO)[C@H](O)[C@H](O)[C@H]5O)[C@H](O)[C@H]4O)nn3)c2)c1,19.9
2,O=C(NCCOc1cc(OCCNC(=O)OCc2cn([C@@H]3O[C@H](CO)[C@H](O[C@H]4O[C@H](CO)[C@H](O)[C@H](O)[C@H]4O)[C@H](O)[C@H]3O)nn2)cc(C(=O)O)c1)OCc1cn([C@@H]2O[C@H](CO)[C@H](O[C@H]3O[C@H](CO)[C@H](O)[C@H](O)[C@H]3O)[C@H](O)[C@H]2O)nn1,1240
3,O=C(O)c1cc(OCc2cn([C@@H]3O[C@H](CO)[C@H](O[C@H]4O[C@H](CO)[C@H](O)[C@H](O)[C@H]4O)[C@H](O)[C@H]3O)nn2)cc(OCc2cn([C@@H]3O[C@H](CO)[C@H](O[C@H]4O[C@H](CO)[C@H](O)[C@H](O)[C@H]4O)[C@H](O)[C@H]3O)nn2)c1,1070
4,[N-]=[N+]=N[C@@H]1O[C@H](CO)[C@H](O[C@H]2O[C@H](CO)[C@H](O)[C@H](O)[C@H]2O)[C@H](O)[C@H]1O,4970
5,O=C(NCCCCCCCCCCCCNC(=O)c1cc(OCc2cn([C@@H]3O[C@H](CO)[C@H](O[C@H]4O[C@H](CO)[C@H](O)[C@H](O)[C@H]4O)[C@H](O)[C@H]3O)nn2)cc(OCc2cn([C@@H]3O[C@H](CO)[C@H](O[C@H]4O[C@H](CO)[C@H](O)[C@H](O)[C@H]4O)[C@H](O)[C@H]3O)nn2)c1)c1cc(OCc2cn([C@@H]3O[C@H](CO)[C@H](O[C@H]4O[C@H](CO)[C@H](O)[C@H](O)[C@H]4O)[C@H](O)[C@H]3O)nn2)cc(OCc2cn([C@@H]3O[C@H](CO)[C@H](O[C@H]4O[C@H](CO)[C@H](O)[C@H](O)[C@H]4O)[C@H](O)[C@H]3O)nn2)c1,13.5
